These results are taken from paper PMC10608021, “Angiotensin-I-Converting Enzyme (ACE)-Inhibitory Peptides from the Collagens of Monkfish (Lophius litulon) Swim Bladders: Isolation, Characterization, Molecular Docking Analysis and Activity Evaluation” (Marine Drugs, 2023).

Where two headings read alike, the source gives them in different places.

Series [1] deals with HUVECs, endothelin-1 (ET-1) level. Put plainly: ET-1 production in HUVECs (assay kit). The series is classed as cell-based, Human. The conditions noted are these: for ET-1 content in NE-treated HUVECs: peptide 300 μM + NE (0.5 μM), NE alone 69.58 ± 3.11 pg/mL; for ET-1 content in HUVECs, result in words: peptide at 100–300 μM. As to the method: (§1) HUVECs were cultured in DMEM at 37 °C in a humidified 5% CO2 atmosphere, and the DMEM contained penicillin (100 U/mL), FBS (10%, v/v) and streptomycin ([…]). After 24 h, the cells were used for follow-up experiments.
(§2) After treatment with ACEi peptides (MHP6, MHP7 and MHP9, respectively) for 24 h, the NO and ET-1 content in the HUVECs was separately determined according to their assay kits as per manufacturers’ protocol.

Series [2] concerns HUVECs, nitric oxide (NO) level. Put plainly: NO production in HUVECs (assay kit). The class given is cell-based, Human. The conditions noted are these: for NO level in HUVECs / NO production level in HUVECs: control 35.01 ± 1.38 µM; for NO level in HUVECs / NO content in NE-treated HUVECs / NO production level in HUVECs: mean ± SD, n = 3; for NO content in NE-treated HUVECs: peptide 300 μM + NE, NE alone 21.34 ± 1.24 µM; for NO production level in HUVECs: peptide 300 μM, 24 h, without NE; for NO content in HUVECs, result in words: treatment with peptide. As to the method: as §1, §2

In series [3] the test system is HUVECs. Put plainly: Viability of HUVECs (MTT). The class given is cell-based, Human. The conditions noted are these: for Cell viability of HUVECs: 400 µM; for Viability of HUVECs, result in words: 400 μM, 24 h, versus control and other concentration groups, p < 0.05. As to the method:
as §1
The MTT method was employed to detect the viability of HUVECs incubated with MHP6, MHP7 and MHP9 [38]. In brief, HUVECs were seeded in 96-well plates and cultured for 24 h. Subsequently, HUVECs were separately treated with MHP6, MHP7 and MHP9 (100, 200, 300 or 400 μM) at 37 °C. After 24 h, MTT was added into the cell culture to reach a final concentration of 2 mg/mL. After 4 h, DMSO was added into each well and the absorbance at 490 nm was determined. Cell viability was calculated according to the following formula:Cell viability (%) = (Asample/Acontrol) × 100(2)

For series [4], the target named is T1, ACE (Homo sapiens, UniProt P12821). Put plainly: ACEi activity (FAPGG substrate). The class given is biochemical. The conditions noted are these: 1.5 mg/mL; FAPGG (3 mM) substrate, ACE 1.25 mU, 37 °C, 0.5 h incubation, HPLC at 228 nm; mean ± SD, n = 3. As to the method: The ACEi activity of PSC-MH, fractions and peptides (MHP1-MHP12) was determined by using FAPGG as a substrate. Briefly, the initial volume was made up of a 50 µL volume of FAPGG (3 mM), ACE (1.25 mU) and the sample solution, respectively. These solutions were first preheated at 37 °C for 0.5 h […], and mixed and incubated for an additional 0.5 h. After that, 150 µL of glacial acetic acid was added to the solution to inactivate ACE. After that, the content of hippuric acid (HA) in the reaction mixture produced from the substrate reactions catalyzed by ACE was determined using HPLC at 228 nm. In short, using an isocratic system (pH 3.0) made up of 12.5% (v/v) acetonitrile in deionized water, the amount of free HA was evaluated using an HPLC system (Agilent 1200, Agilent Ltd., Santa Clara, CA, USA) on a Zorbax SB C-18 column (4.6 × 250 mm, 5 µm). The sample (10 µL) was eluted at a flow rate of 1.0 mL/min, and the absorbance at 228 nm was monitored to obtain the measurement. A total of 50 µL of PBS buffer, used as the sample substitute, was added into the control reaction mixture. ACEi activity was calculated as follows: ACEi activity (%) = [(HA control − HA sample)/HA control] × 100%(1)

In series [5] the target is T1, ACE. The conditions noted are these: cited from earlier work. As to the method:
To illustrate the ACEi mechanism of MHP6, MHP7 and MHP9, a molecular docking assay was conducted (Figure 7), and the affinities of MHP6, MHP7 and MHP9 with ACE were −7.3, −10.9 and −9.4 kcal/mol, respectively, which were similar to those of ACEi peptides from miiuy croakers (IKSW: −9.3 kcal/mol), M. edulis (LSFR: −8.5 kcal/mol), rice bran (YSK: −7.9 kcal/mol), tuna milts (YEGDP: −8.8 kcal/mol) and soybean (LVLL: −8.6 kca ...

Series [6] deals with Nrf2 and heme oxygenase-1 (HO-1) proteins in HUVECs. The conditions noted are these: oxidative damage, ref [73]; cited from earlier work. From the text: (§3) In addition, ET-1 is a known vasoconstriction factor, similar to Ang II, that can result in endothelial dysfunction associated with high blood pressure and atherosclerosis.
For series [7], the system named is HUVECs. The conditions noted are these: cited from earlier work; for NO and ET-1 production in HUVECs: ref [73]; for ET-1 secretion and NO generation in HUVECs: peptide from tuna roes, ref [31].
Text: as §3

The mark [8] stands for this setting: peptide 300 μM, 24 h, without NE, control 54.87 ± 2.57 pg/mL, mean ± SD, n = 3.

T1 sequence (P12821 30-1306, species assumed): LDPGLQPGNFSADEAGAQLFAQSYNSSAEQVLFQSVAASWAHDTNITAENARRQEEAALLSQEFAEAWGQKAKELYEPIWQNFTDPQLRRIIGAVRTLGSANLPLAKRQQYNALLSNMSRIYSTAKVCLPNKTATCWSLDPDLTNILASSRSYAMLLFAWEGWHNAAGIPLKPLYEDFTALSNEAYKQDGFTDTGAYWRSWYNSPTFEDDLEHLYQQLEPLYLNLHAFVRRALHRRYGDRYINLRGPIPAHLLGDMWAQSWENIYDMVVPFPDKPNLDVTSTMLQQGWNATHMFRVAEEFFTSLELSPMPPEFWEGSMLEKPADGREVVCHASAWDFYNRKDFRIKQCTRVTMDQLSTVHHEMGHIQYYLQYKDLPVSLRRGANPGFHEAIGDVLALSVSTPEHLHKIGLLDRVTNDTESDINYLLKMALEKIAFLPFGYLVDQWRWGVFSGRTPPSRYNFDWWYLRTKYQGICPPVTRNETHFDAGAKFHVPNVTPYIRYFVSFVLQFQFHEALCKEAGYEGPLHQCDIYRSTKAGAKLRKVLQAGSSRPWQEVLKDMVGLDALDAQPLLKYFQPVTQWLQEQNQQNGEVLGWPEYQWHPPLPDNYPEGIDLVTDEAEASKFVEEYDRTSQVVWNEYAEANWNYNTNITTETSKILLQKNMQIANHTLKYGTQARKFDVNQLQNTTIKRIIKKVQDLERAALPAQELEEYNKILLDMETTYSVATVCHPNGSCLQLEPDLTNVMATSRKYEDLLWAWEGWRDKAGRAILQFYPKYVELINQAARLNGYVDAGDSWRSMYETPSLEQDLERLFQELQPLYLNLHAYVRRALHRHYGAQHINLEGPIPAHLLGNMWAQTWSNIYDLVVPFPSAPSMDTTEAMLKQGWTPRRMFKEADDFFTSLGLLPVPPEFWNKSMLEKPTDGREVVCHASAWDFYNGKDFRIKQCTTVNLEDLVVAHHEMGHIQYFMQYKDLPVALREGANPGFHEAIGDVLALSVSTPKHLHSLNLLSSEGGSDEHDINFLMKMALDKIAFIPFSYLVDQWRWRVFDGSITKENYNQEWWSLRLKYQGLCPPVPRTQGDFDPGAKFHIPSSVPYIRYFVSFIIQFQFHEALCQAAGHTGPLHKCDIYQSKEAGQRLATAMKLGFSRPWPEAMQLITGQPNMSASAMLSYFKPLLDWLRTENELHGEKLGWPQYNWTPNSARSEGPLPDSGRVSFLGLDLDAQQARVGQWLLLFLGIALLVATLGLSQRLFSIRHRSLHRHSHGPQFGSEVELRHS

On to `C[C@H](CS)C(=O)N1CCC[C@H]1C(=O)O` [Cap, captopril, reference compound], for which the “ET-1 level in HUVECs” value in series [1] (Cap 1.0 μM, control 54.87 ± 2.57 pg/mL, mean ± SD, n = 3) is 32.25 ± 1.26 pg/mL. Besides, the “NO level in HUVECs” value in series [2] (Cap treatment) was 56.18 ± 2.58 µM.
For the compound `NC[C@H](O)c1ccc(O)c(O)c1` [NE, norepinephrine, reference compound], in series [1] (NE 0.5 μM, control 54.87 ± 2.57 pg/mL, p < 0.001, mean ± SD, n = 3), the “ET-1 content in HUVECs” value is recorded as 69.58 ± 3.11 pg/mL. Also, the “NO level in HUVECs” value in series [2] (NE treatment, p < 0.001) is on record as 21.34 ± 1.24 µM.
For the compound H-FDGPY-OH [MHP7, Phe-Asp-Gly-Pro-Tyr], the “ET-1 content in NE-treated HUVECs” value in series [1] (p < 0.001, mean ± SD, n = 3) came to 61.23 ± 1.89 pg/mL. In addition, the “ET-1 content in HUVECs” value in series [1] (setting [8]) worked out at 43.87 ± 1.73 pg/mL. The “ET-1 content in HUVECs, result in words” value in series [1] (p < 0.001) is listed as “significantly reduce the ET-1 content in HUVECs”. For the same compound, the “NO content in NE-treated HUVECs” value in series [2] (p < 0.001) turned out to be 26.31 ± 1.22 µM. In series [2], the “NO production level in HUVECs” value was determined as 48.91 ± 2.35 µM and the “NO content in HUVECs, result in words” value is “significantly increased”. In addition, in the series on HUVECs [3], the “Cell viability of HUVECs” value is given as 90.39 ± 3.19% and the “Viability of HUVECs, result in words” value was “might lead to some adverse harm to the function of HUVECs”. Besides, the ACEi activity on ACE [4] amounted to 84.99 ± 2.34%.
Turning to H-SEGPK-OH [MHP6, Ser-Glu-Gly-Pro-Lys], the “ET-1 content in NE-treated HUVECs” value in series [1] (p < 0.001, mean ± SD, n = 3) is reported as 57.62 ± 1.95 pg/mL. Further, in series [1] (setting [8]), the “ET-1 content in HUVECs” value was determined as 40.35 ± 1.96 pg/mL. The “ET-1 content in HUVECs, result in words” value in series [1] (p < 0.001) is recorded as “significantly reduce the ET-1 content in HUVECs”. Further, the “NO content in NE-treated HUVECs” value in series [2] (p < 0.001) amounted to 31.24 ± 1.29 µM. In series [2], the “NO production level in HUVECs” value is reported as 51.68 ± 2.38 µM and the “NO content in HUVECs, result in words” value is “significantly increased”. Further, in the series on HUVECs [3], the “Cell viability of HUVECs” value is recorded as 91.27 ± 2.64% and the “Viability of HUVECs, result in words” value was “might lead to some adverse harm to the function of HUVECs”. Moreover, on ACE [4], the ACEi activity is given as 86.34 ± 3.25%.
Take H-SPGPW-OH [MHP9, Ser-Pro-Gly-Pro-Trp]: in series [1] (p < 0.001, mean ± SD, n = 3), the “ET-1 content in NE-treated HUVECs” value amounted to 58.44 ± 2.34 pg/mL. Besides, in series [1] (setting [8]), the “ET-1 content in HUVECs” value is on record as 42.18 ± 2.09 pg/mL. For the same compound, the “ET-1 content in HUVECs, result in words” value in series [1] (p < 0.001) was “significantly reduce the ET-1 content in HUVECs”. For the same compound, the “NO content in NE-treated HUVECs” value in series [2] (p < 0.001) came to 29.87 ± 1.34 µM. In series [2], the “NO production level in HUVECs” value is on record as 49.83 ± 0.96 µM and the “NO content in HUVECs, result in words” value is on record as “significantly increased”. Besides, in the series with HUVECs [3], the “Cell viability of HUVECs” value was found to be 91.76 ± 3.22% and the “Viability of HUVECs, result in words” value was “might lead to some adverse harm to the function of HUVECs”. On ACE [4], this compound gave an ACEi activity of 85.39 ± 3.46%.
With IKSW [ACEi peptide from miiuy croakers], the “Affinity with ACE” value at ACE [5] (peptide from miiuy croakers, ref [31]) was -9.3 kcal/mol.
For IVTNWDDMEK, the “Expression levels of Nrf2 and HO-1 proteins” value in series [6] was “positively regulate the expression levels of Nrf2 and heme oxygenase-1 (HO-1) proteins”. Also, the “NO and ET-1 production in HUVECs” value with HUVECs [7] was “regulate NO and ET-1 production in a concentration-dependent manner”.
Consider LSFR, for which the “Affinity with ACE” value at ACE [5] (peptide from M. edulis, ref [30]) is -8.5 kcal/mol.
As to LVLL [ACEi peptide from soybean], the “Affinity with ACE” value on ACE [5] (peptide from soybean, ref [72]) is -8.6 kcal/mol.
Regarding VGPAGPRG, the “Expression levels of Nrf2 and HO-1 proteins” value in series [6] was “positively regulate the expression levels of Nrf2 and heme oxygenase-1 (HO-1) proteins”. The “NO and ET-1 production in HUVECs” value in the series on HUVECs [7] is “regulate NO and ET-1 production in a concentration-dependent manner”.
For the compound WGESF [from tuna roes], the “ET-1 secretion and NO generation in HUVECs” value in the series on HUVECs [7] was “significantly bring down ET-1 secretion and improve the NO generation in HUVECs”.
For the compound WSPGF [from tuna roes], the “ET-1 secretion and NO generation in HUVECs” value in the series on HUVECs [7] was “significantly bring down ET-1 secretion and improve the NO generation in HUVECs”.
For YEGDP, the “Affinity with ACE” value at ACE [5] (peptide from tuna milts, ref [32]) was -8.8 kcal/mol.
